Source: patent US10973857B2, “Mesenchymal stem cell and use thereof for treatment of muscle injury and muscle-associated diseases” (EXOSTEM BIOTEC LTD., priority 2016, dated 2021)

Tested on: MSCs
Experiment: Protocol 3 differentiation of MSCs to hybrid cells with growth factors
Assay type: cell-based
Conditions: individually and in combination, as replacements or in combination with HGF and PDGF
Experimental: A shortened third protocol (Protocol 3) was examined and was also found to produce MSC-muscle cell hybrid cells. The MSCs were cultured in normal MSC culturing conditions followed by supplementation of the media for 24 hours with 5-AZA. The cells were than grown in media supplemented with 2% horse serum and HGF and PDGF for 2 weeks. […] The following growth factors were tested both individually and in combination as replacements or in combination with HGF and PDGF: EGF, IGF1, PDGFAA, PDGFBB, and VEGF. […] Additionally, the protocol could be halted by moving the treated MSCs to non-supplemented MSC media. Hybrid cells that were produced could thus be halted from further differentiation.
All three protocols were also performed with MSCs that had first undergone myogenic priming as described above.

Compound | production of hybrid cells from MSCs
IGF1: growth factor | found to produce hybrid cells
PDGFAA: growth factor | found to produce hybrid cells
VEGF | found to produce hybrid cells

Tested on: MSCs
Experiment: Priming of MSCs to a stem cell phenotype (Protocols D and E)
Assay type: cell-based
Conditions: 24 hours, followed by media with a pH of about 6 for 1 hour or hypoxia for 24 hours (Protocol D)
Experimental: These incubations were also performed after first transfecting the MSCs with the modified Nanog mRNA.

Compound | primed stem cell phenotype in MSCs
C[C@@H](N)[C@H]1CC[C@H](C(=O)Nc2ccncc2)CC1 [Y-27632] | induced a primed stem cell phenotype

Same assay, conditions: incubation for 1-6 days (Protocol E)

Compound | priming of MSCs
N[C@@H]1C[C@H]1c1ccccc1 (racemic) [tranylcypromine] | primed the MSCs to a degree
Nc1nccc2c1ncn2[C@@H]1C=C(CO)[C@@H](O)[C@H]1O [3-deazaneplanocin A] | primed the MSCs to a degree
Cc1cccc(-c2nn(C(=S)Nc3ccccc3)cc2-c2ccnc3ccccc23)n1 [A83-01] | primed the MSCs to a degree
Cc1c[nH]c(-c2cnc(NCCNc3ccc(C#N)cn3)nc2-c2ccc(Cl)cc2Cl)n1 [CHIR99021] | primed the MSCs to a degree
[Cl-].[Li+] [LiCl] | primed the MSCs to a degree
CC(C)n1nc(-c2cc3cc(O)ccc3[nH]2)c2c(N)ncnc21 [PP242] | primed the MSCs to a degree
Cc1cccc(-c2[nH]ncc2-c2ccc3ncccc3n2)n1 [RepSox] | primed the MSCs to a degree
NC(=O)c1ccc(-c2nc(-c3ccc4c(c3)OCO4)c(-c3ccccn3)[nH]2)cc1 [SB431542] | primed the MSCs to a degree
O=C(NCc1ccccc1)c1csc(Nc2ccncn2)n1 [Thiazovivin] | primed the MSCs to a degree
O=c1c(O)c(-c2ccc(O)c(O)c2)oc2cc(O)ccc12 [fistein] | primed the MSCs to a degree
CN(C)C(=N)N=C(N)N [metformin] | primed the MSCs to a degree
Oc1ccc(C=Cc2cc(O)cc(O)c2)cc1 [resveratrol] | primed the MSCs to a degree
CCCC(CCC)C(=O)O [valporic acid] | primed the MSCs to a degree

Tested on: MyoD
Experiment: Myogenic priming of MSCs, MyoD-GFP reporter
Assay type: cell-based, human
Conditions: Nanog mRNA transfection prior to co-culture (Protocol B); one day incubation with 5-AZA (Protocol C)
Description: In light of the ability of MSCs to induce muscle regeneration, reduce muscle fibrosis and increase engraftment via paracrine effects, a method of supplementing the therapeutic effect of MSCs was developed. This method, called “myogenic priming”, increased the cell's paracrine effects on muscle cells on the one hand and promoted the MSC's own differentiation to muscle cells on the other. This priming increased the ability of MSCs to differentiate into satellite cells that undergo asymmetric division and to myoblasts that fuse with existing muscle fibers and deliver dystrophin to the cells. It was hypothesized that inducing MyoD expression in the cells would be one method of priming. This was tested by culturing CH- and UC-MSCs containing a MyoD-GFP reporter, in trans-well plates with human muscle cells (Protocol A). In this way, the extracellular vesicles and secreted factors from the muscle cells were able to contact the MSCs. A 3-day incubation resulting in a greater than 2-fold increase in MyoD expression as compared to control cells that had not be exposed to muscle cells (FIG. 3).
In addition to co-cultures with muscle cells, various methods were employed that would induced transient stem cell characteristics in MSCs to increase their muscle differentiation abilities in response to subsequent factors. […]

Compound | myoD expression
Nc1ncn([C@@H]2O[C@H](CO)[C@@H](O)[C@H]2O)c(=O)n1 [5-azacytidine] | increased
